Results reported in patent US7524853B2 (Solvay Pharmaceuticals B.V., priority 2003, dated 2009).

What was measured:
Assay type in all cases: cell-based
[1] = molecular target: T1, 17β-hydroxysteroid dehydrogenase type 1 (17β-HSD type 1) (Homo sapiens, UniProt P14061); test: Inhibition of 17β-HSD type 1 in MCF-7 cells stably expressing the isoenzyme (tritium labeled estrone conversion, HPLC); conditions: MCF7, MCF-7 cells expressing 17β-HSD type 1, 2 nM tritium labeled estrone; for inhibition at 1 µM: 1 μM test compound, read-out: % Inhibition HSD1 1 μM; for inhibition at 10 µM: 10 μM test compound, read-out: % Inhibition HSD1 10 μM
T1 construct: expressed in transfected cells; host or cells: MCF-7
T1 sequence (P14061 1-328): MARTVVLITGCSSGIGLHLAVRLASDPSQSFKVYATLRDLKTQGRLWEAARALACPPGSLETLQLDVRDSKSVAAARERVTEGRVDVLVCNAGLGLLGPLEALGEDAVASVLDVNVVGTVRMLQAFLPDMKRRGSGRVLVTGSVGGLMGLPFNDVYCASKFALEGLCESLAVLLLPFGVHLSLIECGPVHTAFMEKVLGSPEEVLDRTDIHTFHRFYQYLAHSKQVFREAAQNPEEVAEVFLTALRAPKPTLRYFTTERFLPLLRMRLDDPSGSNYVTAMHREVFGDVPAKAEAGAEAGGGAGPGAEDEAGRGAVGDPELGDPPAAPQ
Description: (§1) Biological Testing Materials and Methods 1. Inhibition of the 17β-hydroxysteroid dehydrocienase type 1, type 2 and type 3 enzyme
(§2) The compounds were screened in respect of 17β-HSD enzyme activity in vitro on established MCF-7 cell lines, each stably expressing one of the respective 17β-HSD isoenzymes. The interconversion of substrate by each isoenzyme and the 17β-HSD inhibiting activity of chemical compounds in these cell lines were detected by HPLC system.
(§3) Varying amounts of the test compounds were incubated in the growth medium of the 17β-HSD expressing cells together tritium labeled substrate (2 nM estrone for 17β-HSD type 1; 2 nM estradiol for 17β-HSD type 2; and 2 nM androstenedione for 17β-HSD type 3). The medium samples were removed after exact incubation time and the reaction is stopped by trichloroacetic acid (TCA). The samples were analyzed by HPLC-coupled flow scintillation analysis.
(§4) For each enzyme type, the HSD-inhibiting activity of an individual test compound was calculated by comparing the conversion of a control sample without any test compound (referred to as “Negative Control”) to the (reduced) conversion of the test sample containing the particular compound to be tested (referred to as “Test Sample”).
(§5) Two concentrations of each compound were used. The number of the compound refers to the numbers indicated in the Experimental Section.

[2] = molecular target: T2, 17β-hydroxysteroid dehydrogenase type 2 (17β-HSD type 2) (Homo sapiens, UniProt P37059); test: Inhibition of 17β-HSD type 2 in MCF-7 cells stably expressing the isoenzyme (tritium labeled estradiol conversion, HPLC); conditions: MCF7, MCF-7 cells expressing 17β-HSD type 2, 2 nM tritium labeled estradiol; for inhibition at 1 µM: 1 μM test compound, read-out: % Inhibition HSD2 1 μM; for inhibition at 10 µM: 10 μM test compound, read-out: % Inhibition HSD2 10 μM
T2 construct: expressed in transfected cells; host or cells: MCF-7
T2 sequence (P37059 1-387): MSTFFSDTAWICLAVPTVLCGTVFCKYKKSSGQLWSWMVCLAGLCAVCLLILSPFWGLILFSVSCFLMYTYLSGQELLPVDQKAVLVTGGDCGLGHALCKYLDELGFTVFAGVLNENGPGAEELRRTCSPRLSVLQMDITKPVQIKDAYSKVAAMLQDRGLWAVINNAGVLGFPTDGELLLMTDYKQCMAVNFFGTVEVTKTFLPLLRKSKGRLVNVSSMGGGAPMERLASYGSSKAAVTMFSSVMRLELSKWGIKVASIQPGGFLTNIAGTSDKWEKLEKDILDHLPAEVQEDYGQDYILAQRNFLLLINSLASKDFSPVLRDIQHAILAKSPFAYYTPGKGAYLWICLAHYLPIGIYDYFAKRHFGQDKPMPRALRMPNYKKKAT
Description: as §1, §2, §3, §4, §5

[3] = molecular target: T3, 17β-hydroxysteroid dehydrogenase type 3 (17β-HSD type 3) (Homo sapiens, UniProt P37058); test: Inhibition of 17β-HSD type 3 in MCF-7 cells stably expressing the isoenzyme (tritium labeled androstenedione conversion, HPLC); conditions: MCF7, MCF-7 cells expressing 17β-HSD type 3, 2 nM tritium labeled androstenedione; for inhibition at 1 µM: 1 μM test compound, read-out: % Inhibition HSD3 1 μM; for inhibition at 10 µM: 10 μM test compound, read-out: % Inhibition HSD3 10 μM
T3 construct: expressed in transfected cells; host or cells: MCF-7
T3 sequence (P37058 1-310): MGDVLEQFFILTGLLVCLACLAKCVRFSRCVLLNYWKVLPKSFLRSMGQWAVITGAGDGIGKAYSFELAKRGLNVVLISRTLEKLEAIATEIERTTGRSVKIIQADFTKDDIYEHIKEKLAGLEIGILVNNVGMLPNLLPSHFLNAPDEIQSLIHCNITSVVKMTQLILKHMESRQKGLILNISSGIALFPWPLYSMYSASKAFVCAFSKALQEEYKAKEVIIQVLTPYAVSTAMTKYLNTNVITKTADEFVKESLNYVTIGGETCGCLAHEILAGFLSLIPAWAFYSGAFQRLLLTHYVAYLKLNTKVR
Description: as §1, §2, §3, §4, §5

Row | SMILES | inhibition at 1 µM [1] [%] | inhibition at 10 µM [1] [%] | inhibition at 1 µM [2] [%] | inhibition at 10 µM [2] [%] | inhibition at 1 µM [3] [%] | inhibition at 10 µM [3] [%]
1 | CC(=O)OCc1nc2sc3c(c2c(=O)n1Cc1ccccc1)CCCC3=O [No. 30, Acetic acid 3-benzyl-4,8-dioxo-3,4,5,6,7,8-hexahydro-benzo[4,5]thieno[2,3-d]pyrimidin-2-ylmethyl ester] | 25.4 | 39.7 | 20.2 | 19.1 | -1.2 | 16.3
2 | COCc1nc2sc3c(c2c(=O)n1Cc1ccccc1)CCCC3=O [No. 31, 3-Benzyl-2-methoxymethyl-6,7-dihydro-3H,5H-benzo[4,5]thieno[2,3-d]pyrimidine-4,8-dione] | 12 | 39.7 | -0.5 | 5.1 | -1.3 | 10.8
3 | COC(=O)c1nc2sc3c(c2c(=O)n1Cc1ccccc1)CCCC3=O [No. 32, 3-Benzyl-4,8-dioxo-3,4,5,6,7,8-hexahydro-benzo[4,5]thieno[2,3-d]pyrimidine-2-carboxylic acid methyl ester] | 37.2 | 86.6 | 9.8 | 19.5 | 9.6 | 70
4 | O=Cc1nc2c(c(=O)n1Cc1ccccc1)C1=C(CCCC1)S2(=O)=O [No. 33, 3-Benzyl-4,9,9-trioxo4,5,6,7,8,9-hexahydro-3H-9lambda*6*-benzo[4,5]thieno[2,3-d]pyrimidine-2-carbaldehyde] | 17.6 | 67.3 | 16.3 | 18.7 | 1.9 | 0.1
5 | COCc1nc2sc3c(c2c(=O)n1Cc1ccccc1)CCC(C=O)=C3Cl [No. 34, 3-Benzyl-8-chloro-2-methoxymethyl-4-oxo-3,4,5,6-tetrahydro-benzo[4,5]thieno[2,3-d]pyrimidine-7-carbaldehyde] | 12.5 | 64.2 | -1.5 | 25.3 | 15.8 | 100
6 | COCc1nc2sc3c(Cl)c(C=O)c(C(=O)O)c(O)c3c2c(=O)n1Cc1ccccc1 [No. 35, 3-Benzyl-8-chloro-7-formyl-5-hydroxyl-2-methoxymethyl-4-oxo-benzo[4,5]thieno[2,3-d]pyrimidine-6-carboxylic acid] | 8.8 | 28.6 | -6.8 | 28.7 | 14.7 | 82.3
7 | COCc1nc2sc3c(c2c(=O)n1-c1ccccc1)CCCC3 [No. 36, 2-Methoxymethyl-3-phenyl-5,6,7,8-tetrahydro-3H-benzo[4,5]thieno[2,3-d]pyrimidin-4-one] | 20.7 | 22.4 | -6.8 | 28.7 | -0.9 | 7.6
8 | COCc1nc2sc3c(c2c(=O)n1-c1ccccc1)CCCC3=O [No. 37, 2-Methoxymethyl-3-phenyl-6,7-dihydro-3H,5H-benzo[4,5]thieno[2,3-d]pyrimidin-4,8-dione] | 9.7 | 21.4 | -0.2 | 9 | 9.2 | 22.2
9 | O=c1c2c3c(sc2nc(CO)n1-c1ccccc1)CCCC3 [No. 38, 2-Hydroxymethyl-3-phenyl-5,6,7,8-tetrahydro-3H-benzo[4,5]thieno[2,3-d]pyrimidin-4-one] | 0.3 | 23.6 | 11.4 | 33.4 | 14.2 | 17.6
10 | CC(=O)OCc1nc2sc3c(c2c(=O)n1-c1ccccc1)CCCC3 [No. 39, Acetic acid 4-oxo-3-phenyl-3,4,5,6,7,8-hexahydro-benzo[4,5]thieno[2,3-d]pyrimidin-2-ylmethyl ester] | 21.1 | 13.2 | 25 | 9.5 | 18.5 | 12.8

Next, values leading:

Row | inhibition at 1 µM [1] [%] | inhibition at 10 µM [1] [%] | inhibition at 1 µM [2] [%] | inhibition at 10 µM [2] [%] | inhibition at 1 µM [3] [%] | inhibition at 10 µM [3] [%] | SMILES
11 | 15.6 | 25 | 13.8 | 5.3 | 3.8 | 16.2 | CCOC(=O)c1nc2sc3c(c2c(=O)n1-c1ccccc1)CCCC3 [No. 40, 4-Oxo-3-phenyl-3,4,5,6,7,8-hexahydro-benzo[4,5]thieno[2,3-d]pyrimidine-2-carboxylic acid ethyl ester]
12 | 5.7 | 10 | 17.9 | 17.7 | 22.5 | 34.5 | O=c1c2c3c(sc2nc(-c2cc(O)c(O)c(O)c2)n1Cc1ccccc1)CCCC3 [No. 41, 3-Benzyl-2-(3,4,5-trihydroxyphenyl)-5,6,7,8-tetrahydro-3H-benzo[4,5]thieno[2,3-d]pyrimidin-4-one]
13 | 26.8 | 56 | -1.9 | -0.5 | 3.2 | 4 | COc1c(O)cc(-c2nc3sc4c(c3c(=O)n2-c2ccccc2)CCCC4)cc1O [No. 42, 3-Phenyl-2-(3,5-dihydroxy-4-methoxyphenyl)-5,6,7,8-tetrahydro-3H-benzo[4,5]thieno[2,3-d]pyrimidin-4-one]
14 | 12 | 23.8 | 18 | 15 | -2.5 | -0.9 | O=c1c2c3c(sc2nc(-c2cc(O)c(O)c(O)c2)n1-c1ccccc1)CCCC3 [No. 43, 3-Phenyl-2-(3,4,5-trihydroxyphenyl)-5,6,7,8-tetrahydro-3H-benzo[4,5]thieno[2,3-d]pyrimidin-4-one]
15 | 10.5 | 55.6 | 2.2 | 16.3 | -22.5 | 26.3 | Cc1nc2sc3c(c2c(=O)n1-c1ccccc1)CCC(Br)C3=O (stereo not drawn) [No. 44, 7-Bromo-2-methyl-3-phenyl-6,7-dihydro-3H,5H-benzo[4,5]thieno[2,3-d]pyrimidine-4,8-dione]
16 | -7.7 | -18.3 | 3.5 | 6.5 | -2.2 | 4.1 | Cc1nc2sc3c(c2c(=O)n1-c1ccccc1)CCC(Br)(Br)C3=O [No. 45, 7,7-Dibromo-2-methyl-3-phenyl-6,7-dihydro-3H,5H-benzo[4,5]thieno[2,3-d]pyrimidine-4,8-dione]
